In patent US12636298B2, “Composition with L-theanine and fructooligosaccharides for human memory enhancement” (HARKE Pharma GmbH, priority 2019, dated 2026):

Legend:
[1] = system: mice; experiment: Step-down passive avoidance test (MT-01 vs FOS and L-theanine); format: in vivo; settings: for Error count during testing phase: MT-01 both, control 2.33; for latency during the retention phase (FIG. 1c): comparison between groups
From the text: (§1) Furthermore, to test the hypothesis that administration of M. officinalis FOS and L-theanine in a ratio of about 2:1 L-theanine:FOS synergistically enhance mice memory, we have performed a step-down passive avoidance test and a water maze test. This was employed to assess the effect of M. officinalis FOS and L-theanine individually on mice memory compared to their collective effect when administrated in combination in a ratio of about 2:1 L-theanine:FOS (MT-01) (FIG. 1).
We analysed the synergy between FOS and L-theanine in the formulation by calculating the coefficient of drug interaction (CDI), as shown in Table 1.

[2] = system: KumMing (KM) mice; experiment: Passive avoidance test (embodiment 1); format: in vivo, mouse
From the text: The Passive Avoidance Test (Solomon and Wynne, 1954; Solomon and Turner, 1960) is a fear-aggravated task employed to evaluate learning and memory in rodent models. In this test, subjects learn to avoid an environment in which an aversive stimulus (such as a foot-shock) was previously delivered. The test chamber is divided into a light compartment and a dark compartment, with a gate between the two. Animals are allowed to explore both compartments on the first day. On the following day, they are given a mild foot shock in one of the compartments. Animals will learn to associate certain properties of the chamber with the foot shock. In order to test their learning and memory, the mice are then placed back in the compartment where no shock was delivered. Mice with normal learning and memory will avoid entering the chamber where they had previously been exposed to the shock. This is measured by recording the latency to cross through the gate between the compartments. “Learning” is the period where mice were trained in this test (Table 1 and 2). Mice were tested at 24 or 48 hours after learning and the results were recorded (“Test column” in Table 1 and 2). “Fade” indicates re-testing of mice 5 days after learning (“Fade column” Table 1 and 2). Error percentage indicates the percentage of mice that have been shocked during the test. Our research was undertaken with KumMing (KM) mice (Dai et al. 2012; Ma et al. 2013). In each test, 48 KM mice were separated into 4 groups, 12 mice per group. A negative-control group was also included in the test and mock treated. […] We subsequently, tested different doses of embodiment 1, 0.1, 0.2 or 0.3 g/kg of mouse body weight (bw) of embodiment 1, consisting of a combination of fructooligoscharide and L-theanine, in the passive avoidance test.

[3] = system: mice; experiment: Water maze test (MT-01 vs FOS and L-theanine); format: in vivo; settings: for Error count during testing phase: MT-01 both, control 4.11
Method: as §1, with “1). Maze test was performed to further confirm the hypothesis. […] We analysed the synergy between FOS and L-theanine in the formulation by calculating the coefficient of drug interaction (CDI), as shown in Table 1.” for “1).”

[4] = Low dose: L-theanine 66, FOS 33 mg/kg·bw
[5] = Medium dose: L-theanine 134, FOS 66 mg/kg·bw
[6] = doses g/kg·bw: Embodiment 1 0.01, L-Theanine 0.0067, Fructooligosaccharide 0.0033, 24 or 48 hours after learning
[7] = doses g/kg·bw: Embodiment 1 0.01, L-Theanine 0.0067, Fructooligosaccharide 0.0033, 5 days after learning
[8] = doses g/kg·bw: Embodiment 1 0.01, L-Theanine 0.0067, Fructooligosaccharide 0.0033, training period

How did the “Error count during testing phase” value [1, 4] turn out when `CCNC(=O)CC[C@H](N)C(=O)O` [L-theanine] was run?
Its value is 0.83.

What about the “Error count during testing phase” value [1, 5] of the same compound?
Its value is 1.00.

What about the “latency during the retention phase (FIG. 1c)” value ([1]; high dose) of the same compound?
Its value is “higher latency”.

And the “latency during the retention phase (FIG. 1c)” value ([1]; low dose)?
The value was “neither the FOS-only nor L-theanine-only group show any significant difference”.

And the “impact on rodent memory in the mouse passive avoidance test” value ([2]; Table 1 doses, vs control)?
The value was “neither fructooligoscharide nor L-theanine alone have a positive impact on rodent memory”.

And the “Test Error Count” value [2, 6]?
The value was 1.22 ± 1.14.

What about the “Test Incubation period” value [2, 6] of the same compound?
The value was 232.13 ± 70.71 s.

What about the “Fade Error Count” value [2, 7] of the same compound?
The value was 1.40 ± 1.07.

And the “Fade Incubation period” value [2, 7]?
The value was 267.80 ± 51.03 s.

And the “Learning Error Count” value [2, 8]?
Its value is 3.90 ± 1.52.

What about the “Learning Incubation period” value [2, 8] of the same compound?
The value was 48.30 ± 10.71 s.

And the “Error count during testing phase” value ([3]; High dose: L-theanine 200, FOS 100 mg/kg·bw)?
The value was 2.41.

What about the “Error count during testing phase” value [3, 4] of the same compound?
Its value is 2.45.

And the “Error count during testing phase” value [3, 5]?
The value was 2.95.

And the “time to escape during the test (FIG. 1a)” value ([3]; all doses, compared to control group, p<0.05)?
The value was “significantly (p<0.05) less time to escape”.

What about the “escape time during test” value ([3]; medium and high dose, between MT-01, L-theanine and FOS) of the same compound?
The value was “no significant differences”.
